From EPA's ToxValDB 9.5 (doi:10.2903/j.efsa.2013.3166)
Values after ≈ are worked out from the molar mass of the structure shown.

Key:
Lepomis macrochirus = conditions: acute; duration: 96 hours; mortality
Colinus virginianus = conditions: for LD50: acute, oral, mortality
Apis mellifera = conditions: acute, duration: 48 hours, mortality
Perca sp. = conditions: acute; duration: 96 hours; mortality
Canidae = conditions: chronic; duration: 1 years; oral; Dog Other; food consumption
Pimephales promelas = conditions: acute; mortality
Typhlodromus pyri = experiment: LR50; higher = less toxic; conditions: not reported; mortality
[1] = acute, duration: 14 days, mortality

Molecule `CC(C)(C)c1ccc(CCOc2ncnc3ccccc23)cc1` [Fenazaquin] has an LC50 (Lepomis macrochirus) of 34.1 ng/mL (≈ 0.111 µM), an LD50 (Colinus virginianus; diet) greater than 1170 mg/kg-day and an LD50 (Colinus virginianus) of 1750 mg/kg-day. For the same molecule, the NOEC (Colinus virginianus; reproduction developmental) was 80.3 mg/kg-day, the LC50 (Folsomia candida; [1]) was greater than 1000 mg/kg and the NOEC (Folsomia candida; chronic/long-term, duration: 28 days) was 23 mg/kg. For the same molecule, the LD50 (Rattus norvegicus; acute, oral, M, mortality) was 134 mg/kg-day, the NOAEL (Rattus norvegicus; chronic, duration: 2 years, oral, histopathology: nonneoplastic) was 0.46 mg/kg-day and the NOEL (Rattus norvegicus; reproduction developmental) was 25 mg/kg-day. It also gave an NOAEL (Rattus norvegicus; reproduction developmental, food consumption) of 10 mg/kg-day, an LD50 (Apis mellifera; dermal) of 1.21 µg/piece and an LD50 (Apis mellifera; oral, unspecified) of 4.29 µg/piece. It also gave an LC50 (Perca sp.) of 3.2 ng/mL (≈ 0.0104 µM), an NOAEL (Canidae) of 5 mg/kg-day and an LC50 (Tagia sp.; [1]) of 26.5 mg/kg. It also gave an NOEC (Tagia sp.; chronic/long-term, duration: 8 weeks) of 1.25 mg/kg, an LC50 (Pimephales promelas) of 4.2 ng/mL (≈ 0.0137 µM) and an LR50 (Typhlodromus pyri) of less than 2 g/ha.
